Assay [1] can be described thus: Luminescence Cell-Based Dose Confirmation HTS to Identify Activators of 5'UTR Stem-Loop Driven Alpha-Synuclein mRNA Translation in H4 Neuroglioblastoma Cells. [Related pubchem assays: 1829 (Project Summary), 1814 (Primary HTS)]. The format is functional.
Assay [2] is described as follows: Luminescence Cell-Based Dose Response HTS to Identify Activators of Luciferase Translation or Activity in H4 […] Cells. [Related pubchem assays: 1829 (Project Summary), 1814 (Primary HTS)]. It is filed as functional.
The next assay has as its system H4. Description: Luminescence Cell-Based Dose Response HTS to Identify Activators of 5'UTR Stem-Loop Driven Prion Protein mRNA Translation in H4 Neuroglioblastoma Cells. [Related pubchem assays: 1829 (Project Summary), 1814 (Primary HTS)]. The format is functional. The note with it: Homo sapiens.
The nature of assay [3]: HEp-2 cell cytotoxicity, dose response, cytotoxicity control for RSV inhibitor project, HTS (AID 2410). It is filed as functional. Conditions: human respiratory syncytial virus.
Assay [4] addresses T1, Rac GTPase-activating protein 1 (Homo sapiens, UniProt Q9H0H5).
T1 sequence (Q9H0H5 whole entry): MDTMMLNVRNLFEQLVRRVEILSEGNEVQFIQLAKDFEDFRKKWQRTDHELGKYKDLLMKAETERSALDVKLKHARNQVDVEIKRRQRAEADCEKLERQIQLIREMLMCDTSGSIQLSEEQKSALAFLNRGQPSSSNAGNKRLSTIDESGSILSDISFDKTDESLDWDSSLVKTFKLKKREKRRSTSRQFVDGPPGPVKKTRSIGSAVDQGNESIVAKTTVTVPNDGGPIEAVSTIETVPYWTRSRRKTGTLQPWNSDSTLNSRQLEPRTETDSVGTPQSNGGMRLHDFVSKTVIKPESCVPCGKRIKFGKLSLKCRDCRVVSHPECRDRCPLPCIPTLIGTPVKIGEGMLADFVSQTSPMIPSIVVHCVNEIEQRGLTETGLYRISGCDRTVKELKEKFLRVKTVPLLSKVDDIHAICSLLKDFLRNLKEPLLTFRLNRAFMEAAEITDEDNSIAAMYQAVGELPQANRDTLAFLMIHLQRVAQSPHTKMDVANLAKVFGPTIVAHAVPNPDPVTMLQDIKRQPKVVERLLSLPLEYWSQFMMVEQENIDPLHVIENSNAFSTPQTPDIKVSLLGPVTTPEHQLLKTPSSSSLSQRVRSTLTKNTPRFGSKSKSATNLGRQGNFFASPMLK
Description: MgcRacGAP GTPase-activating activity inhibitors, confirmation, biochemical, ADP Hunter fluorescence, primary and confirmatory (AID 624330). It is filed as functional.

In assay [5] the test system is Streptococcus sp. 'group A'. Description: growth inhibition of control SK(-) GAS strain, dose response, counter-screen for streptokinase expression inhibitor project, luminescence, kanamycin, BacTiterGlo, confirmation (AID 1900). Conditions: read-out: EC50. The format is functional, organism-based. On the technique in general: Counterscreens check selectivity or assay interference.

A further assay addresses T2, Streptokinase A (Streptococcus pyogenes serotype M1, UniProt P10520).
T2 sequence (P10520 whole entry): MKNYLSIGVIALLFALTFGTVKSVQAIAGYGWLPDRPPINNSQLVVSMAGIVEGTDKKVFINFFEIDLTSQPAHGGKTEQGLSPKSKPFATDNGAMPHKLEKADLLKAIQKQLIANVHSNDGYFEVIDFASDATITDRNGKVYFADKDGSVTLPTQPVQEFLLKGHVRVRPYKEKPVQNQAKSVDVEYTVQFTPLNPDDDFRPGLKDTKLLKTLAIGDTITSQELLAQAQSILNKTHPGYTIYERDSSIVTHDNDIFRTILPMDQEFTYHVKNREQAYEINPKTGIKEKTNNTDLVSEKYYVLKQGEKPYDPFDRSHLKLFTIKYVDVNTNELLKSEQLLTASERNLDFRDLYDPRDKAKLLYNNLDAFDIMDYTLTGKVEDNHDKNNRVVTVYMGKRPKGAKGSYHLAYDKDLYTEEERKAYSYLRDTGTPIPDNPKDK
Description: S. pyogenes streptokinase expression inhibitors, potency, dose response, plasminogen activation absorbance, OD405 (AID 1914).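 Also: secreted streptokinase activity via plasminogen activation per viability signal from cell pellet.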 The format is functional, Streptococcus pyogenes M1 GAS.

A further assay deals with Streptococcus. Description: Group A Streptococcus viability loss, dose response, counter-screen for streptokinase expression inhibitor project, luminescence, BacTiterGlo (AID 1915).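 Also: potency for reduction of bacterial viability or growth.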 It is filed as functional, organism-based.
Another assay concerns INS1. Description: beta cell apoptosis inhibitors, cytokine rescue, dose response, luminescence, retest (AID 449756).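 Also: cell death triggered by IL-1 beta plus TNF-alpha plus IFN-gamma mixture; protective hits raise ATP signal compared with cytokine alone wells.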 It is filed as functional, cell-based. The note with it: Rattus norvegicus.
A short description of assay [6]: Luminescence Cell-Based Dose Retest to Confirm Inhibitors of Cancer Stem Cells. [Related pubchem assays (depositor defined):AID2717, AID2721]. It is filed as functional, Homo sapiens. Conditions: Homo sapiens.
A further assay addresses Paired box protein Pax-8 (Homo sapiens, UniProt Q06710). Description: inhibitors of PAX8-driven TPO luciferase reporter, dose response, RMG-I cells, cherry-pick (AID 687027).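 Also: luciferase reporter driven by Pax8 target thyroperoxidase promoter measured by SteadyGlo luminescence.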 The format is functional, cell-based.

Molecules are shown by their SMILES. The source made the active and inactive calls. Rule as the data show it, for most assays here: actives have a measured EC50 and inactives only a lower limit.

Sequence of Paired box protein Pax-8 (Q06710 whole entry): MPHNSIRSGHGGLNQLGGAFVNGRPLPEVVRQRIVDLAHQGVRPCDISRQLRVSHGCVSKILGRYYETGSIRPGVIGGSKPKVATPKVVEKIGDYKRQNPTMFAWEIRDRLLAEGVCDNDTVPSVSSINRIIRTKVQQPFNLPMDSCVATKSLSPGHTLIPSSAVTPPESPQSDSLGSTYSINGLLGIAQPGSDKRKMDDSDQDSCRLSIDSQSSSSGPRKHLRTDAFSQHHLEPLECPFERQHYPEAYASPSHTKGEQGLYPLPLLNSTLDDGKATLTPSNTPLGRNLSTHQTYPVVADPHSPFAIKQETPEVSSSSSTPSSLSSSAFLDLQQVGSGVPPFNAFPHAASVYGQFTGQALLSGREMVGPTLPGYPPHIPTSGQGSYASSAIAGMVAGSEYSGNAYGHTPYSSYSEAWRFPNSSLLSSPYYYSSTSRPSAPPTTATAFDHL

For orientation: EC50 means the concentration at which the effect is half-maximal. As for `COc1cccc(-c2nc(-c3ccc4c(c3)NC(=O)CO4)cs2)c1`, the figures for the EC50 (in assay [1]; in [2]; in the assay on H4) were 17.7 µM (active), 22.7 µM (active) and 10.8 µM (active), respectively.

The term CC50 denotes the concentration at which the toxic effect on the cells reaches its halfway point. Consider `Cc1cc2c(cc1C)CSC(c1ccccc1OC(=O)C(C)(C)C)SC2`, for which the 50% cytotoxic concentration (CC50) in assay [3] is 16.8 µM (active). Regarding `COc1ccc(-c2cc(C(F)F)n3ncc(C(=O)N4CCc5ccccc5C4)c3n2)cc1`, the CC50 in [3] is 28.3 µM (active). As to `Cc1cnc(NC(=O)CCc2ccccc2)s1`, the concentration for a half-maximal effect (EC50) in [1] is > 120 µM (not active); in assay [2] it was 16.6 µM (active); in the assay on H4, 15.2 µM (active). Regarding `CN1C(=O)C(=Cc2c(OCc3cnc(Cl)s3)ccc3ccccc23)C(=O)N(C)C1=O`, the CC50 in [3] was 20.3 µM (active). Regarding `Cc1ccc2nc3ccc(N4CCCC4)nn3c(=O)c2c1`, the EC50 is 0.723 µM (active) in [1], 0.558 µM (active) in [2] and > 120 µM (not active) in the assay on H4. With `CCc1cc2c(=O)c(-c3ccc4c(c3)OCCO4)coc2cc1OC(=O)c1ccco1`, the CC50 in assay [3] was 29.9 µM (active). In the case of `O=c1cc(Cl)[nH]c(=O)n1CCNc1ncc(C(F)(F)F)cc1Cl`, the EC50 in assay [1] was 12.6 µM (active); in assay [2], 5.68 µM (active); in the assay with H4, 7.52 µM (active). What is called IC50 is the concentration needed to halve the response being measured. Regarding `COc1ccc(C(=O)N2CCN(C3CCN(Cc4ccccc4)CC3)CC2)cc1OC`, the IC50 in [4] was 93.1 µM (active). For `Nc1cc(-c2ccc(Br)cc2)nn1S(=O)(=O)c1cccc2nsnc12`, in assay [3], the CC50 is 11.2 µM (active). For `CSc1ccc(C2c3[nH]c4ccccc4c3CCN2C(=O)c2cc(C)n(C)n2)cc1` (stereo not drawn), the EC50 in [1] is 14.2 µM (active); in assay [2], 17.1 µM (active); in the assay on H4, 11.8 µM (active). In the case of `CCN1CCN(CCOc2cccc(Oc3ccccc3)c2)CC1`, the IC50 in assay [4] is 106 µM (active). As to `COCC1CCN(C(=O)c2ccc3oc(Cc4ccccc4)nc3c2)C1` (stereo not drawn), the EC50 (in assay [5]; at Streptokinase A; in the assay on Streptococcus) was > 150 µM (not active) throughout. Consider `Nc1ccc2[nH]c(-c3cccnc3)nc2c1`, for which the IC50 in [4] was 155 µM (active). For `O=C(Nc1cccc(-c2cccc(Cl)c2)c1)C1CCN(Cc2ccc(CO)o2)CC1`, the CC50 in assay [3] is 12.7 µM (active).

On to `Cc1ccc(-c2cn(-c3ccccc3)c(SCC(=O)NC3CCS(=O)(=O)C3)n2)cc1C` (stereo not drawn), for which the values for the EC50 (in assay [1]; in [2]; in the assay on H4) were 1.36 µM (active), 8.74 µM (active) and 0.301 µM (active), respectively.

In the case of `Cc1ccc(C(=O)NCCC(=O)N2CCCC2)cc1`, the EC50 in assay [1] was 0.419 µM (active); in [2], 5.97 µM (active); with H4, > 120 µM (not active). Consider `COc1ccc(CN2CCN(Cc3ccccc3F)CC2)cc1OC`, for which, in assay [4], the IC50 is 85.5 µM (active). In the case of `COc1ccccc1NC(=O)Cn1c(CN2CCCCC2)nc2ccccc2c1=O`, the EC50 is > 120 µM (not active) in assay [1], > 120 µM (not active) in assay [2] and 37.8 µM (active) in the assay with H4. On to `O=C(CSc1ncnc2sc3c(c12)CCCC3)c1ccccc1`, for which the results for the concentration for a half-maximal effect (EC50) (in assay [1]; in [2]; in the assay on H4) were 11.6 µM (active), 9.61 µM (active) and 28.8 µM (active), respectively. On to `Nc1ccc(C(=O)c2ccc3c(c2)OCCO3)cc1N`, for which the figures for the EC50 (in assay [1]; in assay [2]; with H4) were 9.68 µM (active), 8.7 µM (active) and 21.2 µM (active), respectively. The IC50 in assay [4] is 22.9 µM (active). In the case of `CCCn1c(=N)c(C(=O)NC2CCCC2)cc2c(=O)n3cccc(C)c3nc21`, the EC50 (in assay [1]; in [2]; with H4) was > 120 µM (not active) in each case. Usually AC50 stands for the concentration at which the activity in the assay is half-maximal. For `O=C(NCc1cccnc1)c1ccc([N+](=O)[O-])cc1`, the AC50 in the assay with INS1 is 3.6 µM (active).

With `CC(=O)Nc1cccc(-n2nnc(SCC(=O)c3ccccc3)n2)c1`, the EC50 is 10.5 µM (active) in assay [1], 19.8 µM (active) in [2] and 2.02 µM (active) in the assay on H4. As to `COc1ccc(Oc2nc(-c3ccccn3)nc3ccccc23)cc1`, the EC50 in assay [5] is 17.1 µM (active); at Streptokinase A, > 150 µM (not active); in the assay with Streptococcus it was > 150 µM (not active). In the case of `Cc1ccc(F)c([C@H]2C3C=CCC(c4ccccc4)C3C(=O)N2Cc2ccccc2)c1` (stereo partly drawn), the AC50 in [6] was 3.71 µM (active); in the assay on INS1, 11 µM (active). For `COc1ccc(OC(=O)COc2cccc(C)c2)cc1`, in assay [4], the IC50 was 52.9 µM (active).

For `CC1CCN(C(C(=O)NC2CCCCC2)c2cc3c(cc2[N+](=O)[O-])OCO3)CC1` (stereo not drawn), the concentration for a half-maximal effect (EC50) was > 120 µM (not active) in assay [1], 25 µM (active) in assay [2] and 22.1 µM (active) in the assay on H4. For `c1ccc(Cn2c(-c3ccco3)nc3nc4ccccc4nc32)cc1`, in that order: 11.6 µM (active), 0.127 µM (inconclusive) and > 120 µM (not active). Regarding `O=C(NCCSc1ccccc1)c1ccco1`, the EC50 is > 120 µM (not active) in assay [2] and 15 µM (active) in the assay on H4. For the compound `O=C(c1cc2ccccn2n1)N1CCN(Cc2ccccc2)CC1`, the half-maximal effective concentration (EC50) in assay [1] was 6.68 µM (active); in assay [2], 24.1 µM (active); in the assay with H4 it was 9.44 µM (active). Take `O=C(Nc1ccc(N2CCN(C(=O)c3ccc(Cl)cc3)CC2)cc1)c1cccnc1`: the half-maximal activity concentration (AC50) with INS1 was 5.43 µM (active). In the case of `O=C(N/N=C/c1cc(Br)cs1)c1ccc2c(c1)OCCO2`, the values for the EC50 (in assay [1]; in the assay with H4) were 0.106 µM (active) and > 120 µM (not active), respectively.

On to `O=C(c1ccc(F)cc1)N1C[C@@H]2N[C@H](C1)[C@@H]2c1ccc(-c2ccc(F)cc2)cc1`, for which the AC50 at Paired box protein Pax-8 is 18.3 µM (active). For `C[C@@H]1CCCCO[C@H](CN(C)Cc2ccc(C(F)(F)F)cc2)[C@H](C)CN([C@H](C)CO)C(=O)c2cc(NC(=O)Nc3ccc(F)cc3)ccc2O1`, at Paired box protein Pax-8, the AC50 is 10.7 µM (active).

Turning to `C[C@@H]1CCCCO[C@H](CN(C)S(=O)(=O)c2ccc(Cl)cc2)[C@H](C)CN([C@@H](C)CO)C(=O)c2cc(N(C)C)ccc2O1`, the AC50 on Paired box protein Pax-8 is 8.81 µM (active). With `COC1C(CO)OC(n2c3c(Cl)cccc3c3c4c(c5c6cccc(Cl)c6[nH]c5c32)C(=O)NC4=O)C(O)C1O` (stereo not drawn), on Paired box protein Pax-8, the AC50 was 1.11 µM (active). Turning to `Cc1cc(C)c([N+](=O)[O-])cc1-c1ccc(/C=N/NC(=O)c2nonc2N)o1`, in assay [3], the CC50 was > 50 µM (active).

As to `CCN(CC)c1ccc(/C=N/N2CCOCC2)c(O)c1`, the concentration for a half-maximal effect (EC50) in assay [2] is 4.58 µM (active); with H4, 20 µM (active). The half-maximal inhibitory concentration (IC50) in [4] is 75.6 µM (active). In the case of `O=[N+]([O-])c1cc(S(=O)(=O)/N=C(/c2ccccc2)N2CCOCC2)ccc1Cl`, the EC50 is 0.714 µM (active) in [1] and 14.6 µM (active) in assay [2]. As for `COc1cc(/C=N/N2CCN(c3ccccc3OC)CC2)ccc1O`, the concentration for half-maximal inhibition (IC50) in assay [4] was 36.7 µM (active).

Turning to `Nc1nc2nc[nH]c2c(=S)[nH]1` [THIOGUANINE], on Paired box protein Pax-8, the AC50 was 1.18 µM (active).

The values are drawn from ChEMBL document CHEMBL1201862, “PubChem BioAssay data set” (2004).
